Columns and labels:
[1] = Solubility of hafnium and zirconium tetrabromides in acetic acid-water mixtures in presence of trimellitic acid
Description: Solubility of hafnium compounds, i.e., hafnium bromide, was determined in acetic acid-water mixtures in the presence of trimellitic acid and pyromellitic acid. Hafnium tetrabromide, 0.0012M, was heated in a 20% water-acetic acid solution to reflux. Trimellitic acid (0.71M) was added.

[2] = Metal remaining soluble in filtrate (pyromellitic acid) after durene oxidation

- Appearance of solution after adding trimellitic acid ([1]; 0.0012M tetrabromide in 20% water-acetic acid at reflux, trimellitic acid 0.71M added): remained clear
- % Soluble ([1]; Metal + trimellitic acid in 20% H2O-HOAc at 25° C., solution cooled and solids filtered off, molar basis): 36%
- % Soluble ([1]; Metal + trimellitic acid in 20% H2O-HOAc at 100° C.): 100%
- metal remained soluble ([2]; Example V: durene oxidation reactor effluent cooled to room temperature and filtered): 36%
- % Soluble ([2]; Metal in filtrate after durene oxidation): 32%
SMILES: [Br][Hf]([Br])([Br])[Br] [Hafnium tetrabromide]
